According to PMC5627448, “Pharmacokinetics of carfilzomib in patients with advanced malignancies and varying degrees of hepatic impairment: an open-label, single-arm, phase 1 study” (Experimental Hematology & Oncology, 2017):

Experiments:
[1] = Plasma pharmacokinetics of carfilzomib and its major metabolites after 30-min IV infusion in patients with normal or impaired hepatic function; conditions: human, in vivo
Method: This was a phase 1, multicenter, open-label, nonrandomized, comparative PK study of carfilzomib in patients with normal hepatic function or mild-to-moderate hepatic impairment. The study was conducted at 12 sites in the USA, United Kingdom, France, and the Netherlands. […] Exploratory objectives included evaluation of overall response rate (ORR) and duration of response (DOR).
Patients received carfilzomib as a 30-min IV infusion on days 1, 2, 8, 9, 15, and 16 of 28-day cycles (Fig. 1). All patients were to receive doses of 20 mg/m^2 on days 1 and 2 of cycle 1. […]
Blood samples were collected to measure PK and plasma concentration of carfilzomib and its major metabolites (PR-389/M14, PR-413/M15, and PR-519/M16). […] Safety was assessed throughout the study and included the monitoring of adverse events (AEs) using National Cancer Institute-Common Terminology Criteria for Adverse Events, version 4.03 (NCI-CTCAE v4.03), clinical laboratory evaluations, and vital signs; echocardiograms and physical examinations were also performed. The exact type and frequency of disease or tumor response assessments depended upon tumor type and was assessed by the investigator using the appropriate measure for the underlying malignancy, including Response Evaluation Criteria in Solid Tumours version 1.1. […]

[2] = Safety: treatment-emergent adverse events, discontinuations and deaths (NCI-CTCAE v4.03) in patients by hepatic function; assay type: in vivo, human
Method: (§1) Blood samples were collected to measure PK and plasma concentration of carfilzomib and its major metabolites (PR-389/M14, PR-413/M15, and PR-519/M16). Samples were collected on day 16 of cycle 1 and day 1 of cycle 2 (or on subsequent infusion days when the intended dose levels were administered) before infusion; at 15 min after start of infusion; within 2 min before end of infusion; and at 5, 15, and 30 min (±2 min for each); and at 1, 2, and 4 h (±5 min for each) after end of the infusion (Fig. 1). Safety was assessed throughout the study and included the monitoring of adverse events (AEs) using National Cancer Institute-Common Terminology Criteria for Adverse Events, version 4.03 (NCI-CTCAE v4.03), clinical laboratory evaluations, and vital signs; echocardiograms and physical examinations were also performed. The exact type and frequency of disease or tumor response assessments depended upon tumor type and was assessed by the investigator using the appropriate measure for the underlying malignancy, including Response Evaluation Criteria in Solid Tumours version 1.1.
(§2) Safety was assessed for patients who received any carfilzomib dose. AEs were mapped to a preferred term and system organ class using MedDRA and were graded using the NCI-CTCAE v4.03. ORR was summarized along with 95% exact binomial CIs by cohorts.

[3] = system: relapsed or progressive advanced malignancies; assay: Efficacy: best overall response as determined by investigator (RECIST 1.1 / IMWG-URC); assay type: in vivo, human; conditions: for Best overall response: complete response / Best overall response: partial response / Best overall response: progressive disease / Best overall response: stable disease / Best overall response: not evaluable: response-evaluable population
Method: as §1
For multiple myeloma patients, efficacy was assessed on day 1 of each cycle during treatment. For solid tumor patients, efficacy was assessed on day 1 of every other cycle [i.e., on day 1 (±7 days) of cycles 3, 5, 7, 9, etc.] during treatment.
as §2

[4] = cited from earlier work
Description: Carfilzomib is an irreversible, proteasome inhibitor approved in the United States of America (USA) and Europe for the treatment of relapsed or refractory multiple myeloma in combination with lenalidomide + dexamethasone or with dexamethasone alone. […] In the normal hepatic function cohort, one outlier contributed to the extremely high variability. […] [6].

[5] = normal hepatic function, n = 11
[6] = normal hepatic function, n = 10
[7] = IV administration, patients with solid tumors

SMILES: CC(C)C[C@H](NC(=O)[C@H](CCc1ccccc1)NC(=O)CN1CCOCC1)C(=O)N[C@@H](Cc1ccccc1)C(=O)N[C@@H](CC(C)C)C(=O)[C@@]1(C)CO1 [carfilzomib]
- Higher carfilzomib AUC vs. normal hepatic function patients [1]: 20–50%
- Mean T1/2 [1]: 30 to 42 min
- Deaths considered related to treatment ([2]; both in mild hepatic impairment group: gastrointestinal hemorrhage and acute respiratory distress syndrome): Two
- AE resulting in treatment discontinuation: increased blood bilirubin ([2]; human, in vivo): 2 patients
- AE resulting in treatment discontinuation: pneumonitis ([2]; human, in vivo): one
- Grade ≥3 AEs considered related to treatment, patients ([2]; human, in vivo): 33%
- Grade ≥3 AEs, patients ([2]; human, in vivo): 76%
- Serious AE: acute kidney injury ([2]; human, in vivo): three
- Serious AE: anemia ([2]; human, in vivo): two
- Serious AE: ascites ([2]; human, in vivo): three
- Serious AE: hepatic encephalopathy ([2]; human, in vivo): two
- Serious AE: increased blood bilirubin ([2]; human, in vivo): two
- Serious AE: lower respiratory tract infection ([2]; human, in vivo): two
- Serious AE: pneumonia ([2]; human, in vivo): two
- Serious AE: sepsis ([2]; human, in vivo): three
- Treatment-emergent AEs, patients ([2]; human, in vivo): 98%
- Treatment discontinuation due to death ([2]; mild impairment, n = 17): 2 n
- Treatment discontinuation due to disease progression ([2]; mild impairment, n = 17): 13 n
- Treatment discontinuation due to death ([2]; moderate impairment, n = 14): 1 n
- Treatment discontinuation due to disease progression ([2]; moderate impairment, n = 14): 7 n
- Treatment discontinuation due to death [2, 5]: 1 n
- Treatment discontinuation due to disease progression [2, 5]: 7 n
- Deaths within 30 days after the last dose ([2]; safety population): Nine
- Treatment discontinuation due to death ([2]; severe impairment, n = 4): 2 n
- Treatment discontinuation due to disease progression ([2]; severe impairment, n = 4): 2 n
- Treatment discontinuation due to death ([2]; total, N = 46): 6 n
- Treatment discontinuation due to disease progression ([2]; total, N = 46): 29 n
- Deaths among severe hepatic impairment patients ([2]; two progressive disease, two fatal AEs unrelated to treatment): four
- Best overall response: complete response ([3]; mild impairment, n = 15): 0 (0.0) n (%)
- Best overall response: partial response ([3]; mild impairment, n = 15): 0 (0.0) n (%)
- Best overall response: progressive disease ([3]; mild impairment, n = 15): 12 (80.0) n (%)
- Best overall response: stable disease ([3]; mild impairment, n = 15): 1 (6.7) n (%)
- Best overall response: complete response ([3]; moderate impairment, n = 9): 0 (0.0) n (%)
- Best overall response: not evaluable ([3]; moderate impairment, n = 9): 3 (33.3) n (%)
- Best overall response: partial response ([3]; moderate impairment, n = 9): 0 (0.0) n (%)
- Best overall response: progressive disease ([3]; moderate impairment, n = 9): 4 (44.4) n (%)
- Best overall response: stable disease ([3]; moderate impairment, n = 9): 2 (22.2) n (%)
- Best overall response: complete response [3, 6]: 0 (0.0) n (%)
- Best overall response: not evaluable [3, 6]: 0 (0.0) n (%)
- Best overall response: partial response [3, 6]: 1 (10.0) n (%)
- Best overall response: progressive disease [3, 6]: 5 (50.0) n (%)
- Best overall response: stable disease [3, 6]: 4 (40.0) n (%)
- DOR of partial response ([3]; one multiple myeloma patient with normal hepatic function): ≥ 3 months
- ORR ([3]; overall study population, n = 34, 95% CI 0.1–15.3%): 2.9%
- Best overall response: complete response ([3]; total, n = 34): 0 (0.0) n (%)
- Best overall response: not evaluable ([3]; total, n = 34): 5 (14.7) n (%)
- Best overall response: partial response ([3]; total, n = 34): 1 (2.9) n (%)
- Best overall response: progressive disease ([3]; total, n = 34): 21 (61.8) n (%)
- Best overall response: stable disease ([3]; total, n = 34): 7 (20.6) n (%)
- Cmax, historical data ([4]; 56 mg/m^2, geometric mean (geometric CV%)): 2079 (44%) ng/mL
- Estimated clearance [4, 7]: high and exceeds hepatic blood flow
- Time within which most of the drug is eliminated from the plasma compartment [4, 7]: ≤ 30 min
- Difference in PK parameters, mild hepatic impairment vs normal hepatic function ([4]; population PK analysis, mild N = 143, normal N = 474): no statistically significant differences
